{
  "source": "patent US9550763B2",
  "about": "“Heterocyclic ring and carbocyclic derivative” (Shionogi & Co., Ltd., priority 2012, dated 2017)",
  "data": [
    {"target": "human P2X3 receptor (Homo sapiens (Human), UniProt P56373)", "sequence (P56373 whole entry)": "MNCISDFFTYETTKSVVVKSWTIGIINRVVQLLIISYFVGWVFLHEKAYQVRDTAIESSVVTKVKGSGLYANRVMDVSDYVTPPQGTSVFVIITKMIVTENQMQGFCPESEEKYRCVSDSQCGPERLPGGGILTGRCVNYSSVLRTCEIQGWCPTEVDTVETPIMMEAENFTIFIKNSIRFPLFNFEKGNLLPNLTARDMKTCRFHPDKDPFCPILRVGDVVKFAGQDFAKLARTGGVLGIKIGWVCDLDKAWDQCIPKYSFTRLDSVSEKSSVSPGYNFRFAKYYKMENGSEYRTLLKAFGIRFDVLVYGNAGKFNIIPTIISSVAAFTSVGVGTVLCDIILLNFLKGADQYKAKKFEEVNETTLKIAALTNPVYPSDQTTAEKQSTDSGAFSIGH", "assay": "Evaluation of human P2X3 receptor inhibitory activity (Test Example 1-1, FDSS 3000, 96-well, 50 nM ATP)", "type": "cell-based", "conditions": "human P2X3 receptor in C6BU-1 cells; Test Example 1-1 (compounds I-001 to I-300)", "procedure,_shortened": "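C6BU-1 cells stably expressing human P2X3, loaded with 4 μM Fluo-3-AM (pH 7.5), preincubated 5 min with compound before 50 nM ATP challenge; fluorescence followed 4 min on FDSS 3000. IC50 derived from peak/baseline fluorescence ratio, no-compound as 0% and buffer-instead-of-ATP as 100% inhibition.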", "units": {"IC50": "nM"}, "values": [
      {"smiles": "O=C(Nc1c[nH]/c(=N\\c2ccc(Oc3ccon3)cc2)n(Cc2ccc(Cl)cc2)c1=O)c1ccccn1", "note": "[Compound I-254]", "IC50": 868},
      {"smiles": "CC(=O)N(C)c1c[nH]/c(=N\\c2ccc(Oc3cccc(C(=O)O)n3)cc2)n(Cc2ccc(Cl)cc2)c1=O", "note": "[Compound I-210]", "IC50": 17},
      {"smiles": "COC(=O)[C@@H](C)Cn1c(=O)cc(Nc2ccc(Oc3ccccc3)cc2)n(Cc2ccc(Cl)cc2)c1=O", "note": "[Compound I-113]", "IC50": 187},
      {"smiles": "Cc1cc(Nc2ncc(NC(=O)C3CCOCC3)c(=O)n2Cc2ccc(Cl)cc2)ccc1Oc1cccc(F)n1", "note": "[Compound I-135]", "IC50": 2},
      {"smiles": "CCC(=O)Nc1c[nH]/c(=N\\c2ccc(Oc3ccc(CO)nn3)cc2)n(Cc2ccc(Cl)cc2)c1=O", "note": "[Compound I-089]", "IC50": 17},
      {"smiles": "CCCn1c(=O)cc(Nc2ccc(Oc3cccc(C(=O)OCC)c3)cn2)n(Cc2ccc(Cl)cc2)c1=O", "note": "[Compound I-166]", "IC50": 169},
      {"smiles": "O=C(Nc1c[nH]/c(=N\\c2ccc(Oc3ccon3)cc2)n(Cc2ccc(Cl)cc2)c1=O)c1cn[nH]c1", "note": "[Compound I-235]", "IC50": 225},
      {"smiles": "Cc1cnc(-c2c[nH]/c(=N\\c3ccc(Oc4cccc(C(N)=O)n4)cc3)n(Cc3ccc(Cl)cc3)c2=O)o1", "note": "[Compound I-288]", "IC50": 15},
      {"smiles": "CCn1c(=O)cc(Nc2ccc(Oc3cccc(C(=O)O)c3)nc2)n(Cc2ccc(Cl)cc2)c1=O", "note": "[Compound I-062]", "IC50": 49},
      {"smiles": "O=C(Nc1c[nH]/c(=N\\c2ccc(Oc3ccc(F)cn3)cc2)n(Cc2ccc(Cl)cc2)c1=O)C1COC1", "note": "[Compound I-214]", "IC50": 13},
      {"smiles": "CCC(=O)N(CC)c1c[nH]/c(=N\\c2ccc(Oc3cccc(C#N)n3)cc2)n(Cc2ccc(Cl)cc2)c1=O", "note": "[Compound I-189]", "IC50": 12},
      {"smiles": "N#Cc1cccc(Oc2ccc(Nc3nc(=O)c(C(=O)NC4CCOCC4)cn3Cc3ccc(Cl)cc3)cc2)n1", "note": "[Compound I-216]", "IC50": 6},
      {"smiles": "CCOC(=O)c1cnc(Oc2ccc(Nc3ncc(C(=O)OCC)c(=O)n3Cc3ccc(Cl)cc3)cc2)s1", "note": "[Compound I-056]", "IC50": 13},
      {"smiles": "O=C(Nc1c[nH]/c(=N\\c2ccc(Oc3ccon3)cc2)n(Cc2ccc(Cl)cc2)c1=O)C1CCOC1", "note": "(stereo not drawn) [Compound I-213]", "IC50": 27},
      {"smiles": "Cc1nsc(Oc2ccc(/N=c3\\[nH]cc(NC(=O)C4CCOCC4)c(=O)n3Cc3ccc(Cl)cc3)cc2)n1", "note": "[Compound I-225]", "IC50": 6},
      {"smiles": "CCC(=O)Nc1c[nH]/c(=N\\c2ccc(Oc3cncc(C)n3)cc2)n(Cc2ccc(Cl)cc2)c1=O", "note": "[Compound I-145]", "IC50": 40},
      {"smiles": "NC(=O)c1cccc(Oc2ccc(Nc3cc(=O)[nH]c(=O)n3Cc3ccc(Cl)cc3)cc2)n1", "note": "[Compound I-066]", "IC50": 81},
      {"smiles": "CCc1oc2ccc(/N=c3\\[nH]cc(C=NOC)c(=O)n3Cc3ccc(Cl)cc3)cc2c1C", "note": "[Compound I-058]", "IC50": 223},
      {"smiles": "CCCn1c(=O)cc(Nc2ccc(Oc3cccc(C(=O)OC)c3)cc2)n(Cc2ccc(Cl)cc2)c1=O", "note": "[Compound I-168]", "IC50": 159},
      {"smiles": "O=C(O)c1c[nH]/c(=N\\c2ccc(Oc3ncccc3F)cc2)n(Cc2ccc(Cl)cc2)c1=O", "note": "[Compound I-108]", "IC50": 440},
      {"smiles": "CCn1c(=O)cc(Nc2ccc(Oc3cccc(C(=O)O)n3)cn2)n(Cc2ccc(Cl)cc2)c1=O", "note": "[Compound I-125]", "IC50": 23},
      {"smiles": "CN(C)CCC(=O)Nc1c[nH]/c(=N\\c2ccc(Oc3ccon3)cc2)n(Cc2ccc(Cl)cc2)c1=O", "note": "[Compound I-185]", "IC50": 158},
      {"smiles": "CCOC(=O)/N=C(\\NC)Nc1c[nH]/c(=N\\c2ccc(Oc3ccon3)cc2)n(Cc2ccc(Cl)cc2)c1=O", "note": "[Compound I-238]", "IC50": 990},
      {"smiles": "CCC(=O)Nc1c[nH]/c(=N\\c2ccc(Oc3cccc(C(=O)O)n3)cc2)n(Cc2ccc(Cl)cc2)c1=O", "note": "[Compound I-104]", "IC50": 3},
      {"smiles": "CCC(=O)Nc1c[nH]/c(=N\\c2ccc(Oc3ccnc(C(=O)O)c3)cc2)n(Cc2ccc(Cl)cn2)c1=O", "note": "[Compound I-289]", "IC50": 24},
      {"smiles": "CCc1oc2ccc(Nc3ncc(NC(=O)C4CCOCC4)c(=O)n3C[C@H]3CC[C@H](C)CC3)cc2c1C", "note": "[Compound I-082]", "IC50": 9},
      {"smiles": "O=C(Nc1c[nH]/c(=N\\c2ccc(Oc3ccon3)cc2)n(Cc2ccc(Cl)cc2)c1=O)c1ccncc1", "note": "[Compound I-266]", "IC50": 68}
    ]}
  ]
}
